This experiment concerns the target MAPK14 (UniProt Q16539). Nature of the experiment: Enzyme Assay.

Some results are limits rather than exact numbers.

One may read the IC50 as the concentration at which inhibition is half-maximal. High values mean weaker potency in that assay, low ones greater potency in that assay.

MAPK14, sequence (Q16539 whole entry, looked up): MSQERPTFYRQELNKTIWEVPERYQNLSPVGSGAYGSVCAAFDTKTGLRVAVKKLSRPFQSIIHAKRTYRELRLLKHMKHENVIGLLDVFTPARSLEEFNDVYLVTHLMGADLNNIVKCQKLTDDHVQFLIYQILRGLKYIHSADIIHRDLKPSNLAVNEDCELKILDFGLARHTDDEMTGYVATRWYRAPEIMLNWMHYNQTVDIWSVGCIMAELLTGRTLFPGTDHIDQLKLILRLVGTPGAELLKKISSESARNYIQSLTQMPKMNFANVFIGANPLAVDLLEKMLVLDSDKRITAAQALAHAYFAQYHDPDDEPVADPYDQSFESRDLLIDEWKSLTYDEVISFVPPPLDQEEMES

`O=C(Nc1ccc(F)c(COc2cnccn2)c1)Nc1cc(C2CCOCC2)nn1-c1ccc(F)cc1` returned an IC50 of less than 2 µM.

`O=C(Nc1ccc(Cl)c(COc2cccnc2)c1)c1ccnc(N2CCOCC2)c1` registered an IC50 of less than 2 µM.

As to `O=C1c2ccccc2C(O)N1c1ccc(Cl)c(COc2cccnc2)c1` (centres undefined), the IC50 was less than 200 µM.

In turn, `O=C(Nc1ccc(F)c(COc2cnccn2)c1)c1ccc(-c2ccccc2)cc1` showed an IC50 of less than 200 µM.

Compound `CC(C)(C)c1csc(NC(=O)Nc2ccc(F)c(COc3cnccn3)c2)n1` yielded an IC50 of less than 20 µM.

The compound `CC(C)(CO)NC(=O)Nc1cnc(OCc2c(Cl)cccc2Cl)cn1` yielded an IC50 of less than 2 µM.

The compound `CC(C)c1nnc(NC(=O)Nc2ccc(F)c(COc3cccnc3)c2)s1` registered an IC50 of less than 20 µM.

`O=C(Nc1ccc(F)c(COc2cnccn2)c1)c1nnc(-c2ccccc2)o1`: the IC50 is less than 2 µM.

For `Nc1ncccc1OCc1ccc(F)cc1F`, the IC50 was less than 1000 µM.

`C[S+]([O-])c1nnc(NC(=O)Nc2ccc(F)c(COc3cnccn3)c2)s1` (centres undefined) had an IC50 of less than 1000 µM.

With `c1cc(COc2cnccn2)cc(Nc2nc3ccccc3o2)c1`, the IC50 is less than 200 µM.

The compound `O=C(Nc1ccc(F)c(COc2cnccn2)c1)c1cc(N2CCOCC2)nc(N2CCOCC2)n1` had a half-inhibitory concentration (IC50) of less than 2 µM.

The compound `O=C(Nc1ccc(F)c(COc2cnccn2)c1)c1cccc(S(=O)(=O)N2CCOCC2)c1` registered an IC50 of less than 2 µM.

In turn, `Nc1cnc(OCc2c(Cl)cccc2Cl)cn1` had an IC50 of less than 200 µM.

`Nc1ncccc1OCc1ccc(Cl)c(F)c1` registered an IC50 of less than 200 µM.

`Nc1ncccc1OCc1c(F)cccc1Cl` gave an IC50 of less than 1000 µM.

As to `Nc1ncc(OCc2cccc3ccccc23)nc1Br`, the IC50 was less than 1000 µM.

Take `Nc1ncccc1OCc1cc(NC(=O)c2ccccc2)ccc1Cl`: the IC50 is less than 20 µM.

The compound `O=C(NCCO)c1cnc(OCc2c(Cl)cccc2Cl)cn1` gave an IC50 of less than 1000 µM.

`O=C(Nc1ccc(F)c(COc2cnccn2)c1)Oc1cccc(C(F)(F)F)c1` returned an IC50 of less than 20 µM.

For `O=C(Nc1ccc(F)c(COc2cnccn2)c1)c1cccc(Oc2ccccc2)c1`, the IC50 was less than 2 µM.

The compound `O=C(Nc1ccc(Cl)c(COc2cccnc2)c1)c1cccc(F)c1` showed a concentration for half-maximal inhibition (IC50) of less than 200 µM.

In turn, `CC(C)(C)C(=O)Nc1cnc(OCc2c(Cl)cccc2Cl)cn1` yielded a 50% inhibitory concentration (IC50) of less than 200 µM.

In turn, `O=S(=O)(Nc1ccc(Cl)c(COc2cccnc2)c1)c1ccccc1` yielded an IC50 of less than 200 µM.

`O=C(Nc1ccc(Cl)c(COc2cccnc2)c1)c1cccc(C(F)(F)F)c1`: the IC50 is less than 20 µM.

Regarding `CC1(C(=O)Nc2cnc(OCc3c(Cl)cccc3Cl)cn2)CC1`, the 50% inhibitory concentration (IC50) is less than 200 µM.

`OCCNc1ccc(OCc2ccccc2)cn1` came in with an IC50 of less than 200 µM.

`Nc1nccnc1OCc1c(Cl)cccc1Cl` showed a half-inhibitory concentration (IC50) of less than 1000 µM.

Consider `O=C(Nc1ccc(F)c(COc2cnccn2)c1)Nc1cc(-c2ccc(Cl)cc2)nn1-c1ccccc1`, for which the IC50 is less than 2 µM.

For `CC(C)(C)c1cc(NC(=O)Nc2ccc(F)c(COc3cnccn3)c2)n(Cc2ccccc2)n1`, the IC50 is less than 2 µM.

The compound `O=C1c2ccccc2C(=O)N1c1ccc(Cl)c(COc2cccnc2)c1` came in with an IC50 of less than 1000 µM.

Regarding `O=C(Nc1ccc(Cl)c(COc2cnccn2)c1)c1ccnc(N2CCOCC2)c1`, the IC50 is less than 2 µM.

Take `c1cc(COc2cccnc2)cc(COc2cccnc2)c1`: the IC50 was less than 1000 µM.

The compound `Nc1cnc(OCc2ccccc2)cn1` displayed an IC50 of less than 1000 µM.

In turn, `Cc1ccc2ccccc2c1COc1cccnc1N` yielded an IC50 of less than 100 µM.

In turn, `CC(C)(CO)C(=O)Nc1cnc(OCc2c(Cl)cccc2Cl)cn1` had an IC50 of less than 200 µM.

For `O=C(Nc1ccccc1)Oc1cccc(COc2cnccn2)c1`, the IC50 was less than 200 µM.

In turn, `O=C(Nc1cccc(COc2cccnc2)c1)c1ccccc1` yielded an IC50 of less than 200 µM.

In the case of `CC(C)(C)c1cc(NC(=O)Nc2ccc(F)c(COc3cnccn3)c2)n(-c2ccc(Cl)nn2)n1`, the IC50 is less than 2 µM.

For the compound `O=C(Nc1ccccc1)Nc1ccc(Cl)c(COc2cccnc2)c1`, the IC50 is less than 20 µM.

`O=C(Nc1ccc(F)c(COc2cccnc2)c1)c1cccc(F)c1` had an IC50 of less than 200 µM.

In the case of `Clc1cccc(Cl)c1COc1cnccn1`, the IC50 is less than 200 µM.

`Nc1ncccc1OCc1c(F)cc(F)cc1F`: the IC50 was less than 1000 µM.

In turn, `Cc1noc(-c2ccccc2)c1C(=O)Nc1ccc(F)c(COc2cnccn2)c1` gave a half-maximal inhibitory concentration (IC50) of less than 200 µM.

As for `Clc1ncccc1OCc1ccccc1`, the IC50 was less than 2000 µM.

`O=C(CN1CCCCC1)Nc1cnc(OCc2c(Cl)cccc2Cl)cn1` had an IC50 of less than 200 µM.

`CC(C)(C)c1cc(NC(=O)Nc2ccc(Cl)c(COc3cnccn3)c2)[nH]n1` displayed an IC50 of less than 20 µM.

The compound `c1cncc(OCc2cccc3ccccc23)c1` had an IC50 of less than 1000 µM.

Turning to `Nc1ncccc1OCc1cccc(-c2ccccc2)c1`, the IC50 is less than 200 µM.

The compound `CCN(CC)C(=O)Nc1cnc(OCc2c(Cl)cccc2Cl)cn1` registered a half-maximal inhibitory concentration (IC50) of less than 200 µM.

As for `Cc1nc2sccn2c1C(=O)Nc1ccc(F)c(COc2cnccn2)c1`, the IC50 was less than 2 µM.

As to `NC(=O)Nc1ccc(Cl)c(COc2cccnc2)c1`, the concentration for half-maximal inhibition (IC50) was less than 20 µM.

In the case of `Cc1nc(-c2cc(C(=O)Nc3ccc(F)c(COc4cnccn4)c3)no2)cs1`, the IC50 is less than 200 µM.

`Nc1ncccc1OCn1nnc2ccccc21` gave an IC50 of less than 1000 µM.

With `O=C(Nc1ccc(F)c(COc2cnccn2)c1)Nc1cc(-c2ccccc2)nn1-c1ccccc1`, the IC50 was less than 2 µM.

The compound `Nc1ncc(OCc2ccccc2)nc1Br` displayed an IC50 of less than 1000 µM.

For `Nc1ncccc1OCc1cccc2ccoc12`, the concentration for half-maximal inhibition (IC50) is less than 1000 µM.

On to `CC(C)(CO)NC(=O)c1cnc(OCc2c(Cl)cccc2Cl)cn1`, for which the IC50 is less than 20 µM.

`O=C(Nc1ccc(F)c(COc2cnccn2)c1)Nc1cc(C2CCCO2)nn1-c1ccc(F)cc1` (centres undefined): the IC50 was less than 2 µM.

The compound `Nc1ncccc1OCc1cccc(Cl)c1F` displayed a concentration for half-maximal inhibition (IC50) of less than 1000 µM.

Compound `O=C(Nc1ccc(F)c(COc2cnccn2)c1)c1cc(On2nnc3ccccc32)nc(Cl)n1` displayed an IC50 of less than 1000 µM.

As for `CC(C)(C)c1cccc(C(=O)Nc2ccc(F)c(COc3cnccn3)c2)c1`, the IC50 was less than 2 µM.

As to `O=C(Nc1ccc(F)c(COc2cnccn2)c1)Nc1nc(-c2ccccc2)cs1`, the IC50 is less than 20 µM.

`Nc1ncccc1OCc1cccc(C(=O)NCC2CC2)c1`: the IC50 was less than 1000 µM.

Compound `O=C(Nc1ccc(Cl)c(COc2ccc(NCc3ccccc3)nc2)c1)c1cc(F)cc(N2CCOCC2)c1` returned an IC50 of less than 2 µM.

`O=C(Nc1ccc(F)c(COc2cnccn2)c1)Nc1cc(-c2ccccc2)[nH]n1` registered a concentration for half-maximal inhibition (IC50) of less than 2 µM.

With `Cc1cc(C)c2nc(NC(=O)Nc3ccc(F)c(COc4cnccn4)c3)sc2c1`, the IC50 was less than 1000 µM.

`CC(=O)Nc1ccc(Cl)c(COc2cccnc2)c1` registered an IC50 of less than 1000 µM.

Compound `Cc1cc(-n2nc(C(C)(C)C)cc2NC(=O)Nc2ccc(F)c(COc3cnccn3)c2)nc(C)n1` displayed an IC50 of less than 2 µM.

Take `CC(C)(C)c1cc(NC(=O)Nc2ccc(F)c(COc3cnccn3)c2)n(-c2nc3ccccc3s2)n1`: the IC50 was less than 20 µM.

In turn, `Cc1nc(-c2cccc(C(=O)Nc3ccc(F)c(COc4cnccn4)c3)c2)cs1` displayed an IC50 of less than 2 µM.

On to `CC(C)(C)c1cc(NC(=O)Nc2ccc(F)c(COc3cnccn3)c2)n(-c2ccncc2)n1`, for which the concentration for half-maximal inhibition (IC50) is less than 2 µM.

For `Nc1ncccc1OCc1ccc(F)cc1Cl`, the IC50 was less than 1000 µM.

The compound `Clc1cccc(Cl)c1COc1cnc(N2CCOCC2)cn1` returned an IC50 of less than 200 µM.

The values are drawn from the Kinase Knowledgebase extract (Sharma et al. 2016).
